# Measurements from patent publication US9988430B2, “Stable GLP-1 based GLP-1/glucagon receptor co-agonists” (Novo Nordisk A/S, priority 2014, dated 2018).
# *1 amine or outer side, *2 acyl side, *3 side chain or, on linkers, in order; H or OH if unused. Where a SMILES comes first, the peptide text is derived from it. Bridges are numbered along the chain shown (N, C = ends). Roman numbers before positions name the chains, in order. Side-chain parts run from the residue outwards. [ ]: non-standard residue; d: D form. The star is where a group is joined. C18 diacid = O=C(O)CCCCCCCCCCCCCCCCC(=O)*; γGlu = O=C(O)[C@H](CCC(=O)[*:2])N[*:1]; Desaminohistidyl = O=C(CCc1c[nH]cn1)*; Ac4c = NC1(C(=O)O)CCC1; AEEA = NCCOCCOCC(=O)O; Aib = CC(C)(N)C(=O)O
# Target: T1, human GLP-1 receptor (Homo sapiens, UniProt P43220)
# T1 construct: expressed in transfected cells; host or cells: membranes of BHK cells, parent line BHKTS13, clone FCW467-12A
# Assay: Assay (II)(a): GLP-1 receptor binding, [125I]GLP-1 displacement, SPA on BHK membranes
# Details: displacement of [125I]GLP-1, membranes with human GLP-1 receptor; read-out: IC50 GLP-1R
# Summary of the method: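 Membranes from BHK cells expressing human GLP-1 receptor with WGA SPA beads, [125I]GLP-1(7-36)NH2 (480 pM added solution) and compound in HEPES pH 7.4 buffer with EGTA, MgCl2, Tween 20. Incubated 2 h at 30° C; SPA counts fitted by non-linear regression to IC50 in nM.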
# T1 sequence (P43220 24-463): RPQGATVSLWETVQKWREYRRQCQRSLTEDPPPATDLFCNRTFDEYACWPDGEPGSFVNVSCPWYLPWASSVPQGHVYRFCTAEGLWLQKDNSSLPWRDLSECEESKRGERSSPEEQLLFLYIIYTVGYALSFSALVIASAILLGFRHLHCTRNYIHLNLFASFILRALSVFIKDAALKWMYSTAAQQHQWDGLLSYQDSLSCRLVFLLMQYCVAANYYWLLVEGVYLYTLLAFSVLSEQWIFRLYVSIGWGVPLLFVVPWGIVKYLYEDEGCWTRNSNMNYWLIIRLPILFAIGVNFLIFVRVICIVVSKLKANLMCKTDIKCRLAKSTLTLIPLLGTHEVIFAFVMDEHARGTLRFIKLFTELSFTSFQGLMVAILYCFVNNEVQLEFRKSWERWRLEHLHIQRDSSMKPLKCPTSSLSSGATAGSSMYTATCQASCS
row,SMILES,IC50 [nM]
1,"CC[C@H](C)[C@H](NC(=O)[C@H](Cc1ccccc1)NC(=O)[C@H](CCC(=O)O)NC(=O)[C@H](CCCNC(=N)N)NC(=O)[C@H](C)NC(=O)[C@H](C)NC(=O)[C@H](CCCNC(=N)N)NC(=O)CNC(=O)[C@H](CCC(=O)O)NC(=O)[C@H](CC(C)C)NC(=O)[C@H](Cc1ccc(O)cc1)NC(=O)[C@H](CCCCN)NC(=O)[C@H](CO)NC(=O)[C@@H](NC(=O)[C@H](CC(=O)O)NC(=O)[C@H](CO)NC(=O)[C@@H](NC(=O)[C@H](Cc1ccccc1)NC(=O)[C@@H](NC(=O)CNC(=O)[C@H](Cc1c[nH]cn1)NC(=O)C1(NC(=O)CCc2c[nH]cn2)CCC1)[C@@H](C)O)[C@@H](C)O)C(C)C)C(=O)N[C@@H](C)C(=O)N[C@@H](Cc1c[nH]c2ccccc12)C(=O)N[C@@H](CC(C)C)C(=O)N[C@@H](CC(C)C)C(=O)N[C@@H](CCCCNC(=O)CNC(=O)[C@H](CO)NC(=O)[C@H](CCC(=O)O)NC(=O)CNC(=O)[C@H](CO)NC(=O)CC[C@H](NC(=O)CC[C@H](NC(=O)CCCCCCCCCCCCCCCCC(=O)O)C(=O)O)C(=O)O)C(=O)N[C@H](C(N)=O)[C@@H](C)O [Example 20, N^ε34-[2-[[(2S)-2-[[(2S)-4-carboxy-2-[[2-[[(2S)-2-[[(4S)-4-carboxy-4-[[(4S)-4-carboxy-4-(17-carboxyheptadecanoylamino)butanoyl]amino]butanoyl]amino]-3-hydroxypropanoyl]amino]acetyl]amino]butanoyl]amino]-3-hydroxypropanoyl]amino]acetyl]-[Imp7,Acb8,His9,Lys18,Arg23,Arg26,Leu33,Thr35]-GLP-1-(7-35)-peptide amide] (I: Desaminohistidyl-[Ac4c]HGTFTSDVSKYLEGRAAREFIAWLLKT-NH2 / II: {C18 diacid-γGlu-γGlu}-SGESG; amide I:27-II:C)",0.3
2,"CC[C@H](C)[C@H](NC(=O)[C@H](Cc1ccccc1)NC(=O)[C@H](CCC(=O)O)NC(=O)[C@H](CCCNC(=N)N)NC(=O)[C@H](C)NC(=O)[C@H](C)NC(=O)[C@H](CCC(N)=O)NC(=O)[C@H](CCC(=O)O)NC(=O)[C@H](CCC(=O)O)NC(=O)[C@H](CC(C)C)NC(=O)[C@H](Cc1ccc(O)cc1)NC(=O)[C@H](CCCCN)NC(=O)[C@H](CO)NC(=O)[C@@H](NC(=O)[C@H](CC(=O)O)NC(=O)[C@H](CO)NC(=O)[C@@H](NC(=O)[C@H](Cc1ccccc1)NC(=O)[C@@H](NC(=O)CNC(=O)[C@H](Cc1c[nH]cn1)NC(=O)C(C)(C)NC(=O)CCc1c[nH]cn1)[C@@H](C)O)[C@@H](C)O)C(C)C)C(=O)N[C@@H](C)C(=O)N[C@@H](Cc1c[nH]c2ccccc12)C(=O)N[C@@H](CC(C)C)C(=O)N[C@@H](CC(C)C)C(=O)N[C@@H](CCCCNC(=O)COCCOCCNC(=O)COCCOCCNC(=O)CC[C@H](NC(=O)CC[C@H](NC(=O)CCCCCCCCCCCCCCCCC(=O)O)C(=O)O)C(=O)O)C(=O)N[C@H](C(N)=O)[C@@H](C)O [Example 5, N^ε34-[2-[2-[2-[[2-[2-[2-[[(4S)-4-carboxy-4-[[(4S)-4-carboxy-4-(17-carboxyheptadecanoylamino)butanoyl]amino]butanoyl]amino]ethoxy]ethoxy]acetyl]amino]ethoxy]ethoxy]acetyl]-[Imp7,Aib8,His9,Lys18,Glu22,Arg26,Leu33,Thr35]-GLP-1-(7-35)-peptide amide] (Desaminohistidyl-[Aib]HGTFTSDVSKYLEEQAAREFIAWLLK([AEEA-AEEA-γGlu-γGlu-C18 diacid])T-NH2)",0.5
